Source: patent US4670457A, “2H-benzofuran-3-one-derivatives and process for their preparation” (Farmitalia Carlo Erba, S.p.A., priority 1978, dated 1987)

Experiment: Seven days indicative acute toxicity after oral administration
Settings: mouse, in vivo, mice
Method: The tested compounds were administered per os (p.o.) 15 minutes before the administration of the antigen: at least 6 rats were used for each dose. Seven days indicative acute toxicity after oral administration was assessed for the compounds of the invention, for example, a LD50 >800 mg/kg in mice was obtained for all the following compounds of the invention: […]

Which LD50 at 168 h does the source give for COc1cccc(C=C2Oc3ccc(C(=O)O)cc3C2=O)c1 [5-carboxy-2-(3'-methoxy-benzylidene)-2H-benzofuran-3-one] here?
The LD50 at 168 h was greater than 800 mg/kg.

For COc1ccc(C=C2Oc3ccc(C(=O)O)cc3C2=O)cc1OC [5-carboxy-2-(3',4'-dimethoxy-benzylidene)-2H-benzofuran-3-one], which LD50 at 168 h is on record?
Its LD50 at 168 h is greater than 800 mg/kg.

With COc1ccc(C=C2Oc3ccc(C(=O)O)cc3C2=O)c(OC)c1OC [K 13422, 5-carboxy-2-(2',3',4'-trimethoxy-benzylidene)-2H-benzofuran-3-one] as the molecule, how does the LD50 at 168 h read?
The LD50 at 168 h was greater than 800 mg/kg.

With CC(C)Oc1cccc(C=C2Oc3ccc(C(=O)O)cc3C2=O)c1 [5-carboxy-2-(3'-isopropoxy-benzylidene)-2H-benzofuran-3-one] as the molecule, how does the LD50 at 168 h read?
Its LD50 at 168 h is greater than 800 mg/kg.

For COc1ccc(OC(C)C)c(C=C2Oc3ccc(C(=O)O)cc3C2=O)c1 [K 13432, 5-carboxy-2-(2'-isopropoxy-5'-methoxy-benzylidene)-2H-benzofuran-3-one], which LD50 at 168 h is on record?
The LD50 at 168 h was greater than 800 mg/kg.

With COc1ccccc1C=C1Oc2ccc(C(=O)O)cc2C1=O [5-carboxy-2-(2'-methoxy-benzylidene)-2H-benzofuran-3-one] as the molecule, how does the LD50 at 168 h read?
Its LD50 at 168 h is greater than 800 mg/kg.

Which LD50 at 168 h does the source give for COc1cc(C=C2Oc3ccc(C(=O)O)cc3C2=O)cc(OC)c1OC [K 13364, 5-carboxy-2-(3',4',5'-trimethoxy-benzylidene)-2H-benzofuran-3-one] here?
Its LD50 at 168 h is greater than 800 mg/kg.

For COc1ccc(OC)c(C=C2Oc3ccc(C(=O)O)cc3C2=O)c1 [K 13383, 5-carboxy-2-(2',5'-dimethoxy-benzylidene)-2H-benzofuran-3-one], which LD50 at 168 h is on record?
The LD50 at 168 h was greater than 800 mg/kg.

With COc1ccc(C=C2Oc3ccc(C(=O)O)cc3C2=O)cc1 [5-carboxy-2-(4'-methoxy-benzylidene)-2H-benzofuran-3-one] as the molecule, how does the LD50 at 168 h read?
The LD50 at 168 h was greater than 800 mg/kg.

With O=C(O)c1ccc2c(c1)C(=O)C(=Cc1cccs1)O2 [5-carboxy-2-(2'-thenylidene)-2H-benzofuran-3-one] as the molecule, how does the LD50 at 168 h read?
Its LD50 at 168 h is greater than 800 mg/kg.

For CC(C)Oc1ccccc1C=C1Oc2ccc(C(=O)O)cc2C1=O [5-carboxy-2-(2'-isopropoxy-benzylidene)-2H-benzofuran-3-one], which LD50 at 168 h is on record?
The LD50 at 168 h was greater than 800 mg/kg.
